Source: patent US20030054524A1, “Method of increasing the fatty acid content in plant seeds” (priority 1999, published 2003)

Key:
[1] = test system: enzymes of the KASI type; details: in the presence of 5 μM cerulenin; cited from earlier work
[2] = molecular target: T1, clKASIV (Cuphea lanceolata, UniProt Q949J2); experiment: Enzyme assay: sensitivity of recombinant clKASIV to cerulenin; type: biochemical; details: condensation assay with [2-14C]-malonyl-ACP
T1 sequence (Q949J2 106-538): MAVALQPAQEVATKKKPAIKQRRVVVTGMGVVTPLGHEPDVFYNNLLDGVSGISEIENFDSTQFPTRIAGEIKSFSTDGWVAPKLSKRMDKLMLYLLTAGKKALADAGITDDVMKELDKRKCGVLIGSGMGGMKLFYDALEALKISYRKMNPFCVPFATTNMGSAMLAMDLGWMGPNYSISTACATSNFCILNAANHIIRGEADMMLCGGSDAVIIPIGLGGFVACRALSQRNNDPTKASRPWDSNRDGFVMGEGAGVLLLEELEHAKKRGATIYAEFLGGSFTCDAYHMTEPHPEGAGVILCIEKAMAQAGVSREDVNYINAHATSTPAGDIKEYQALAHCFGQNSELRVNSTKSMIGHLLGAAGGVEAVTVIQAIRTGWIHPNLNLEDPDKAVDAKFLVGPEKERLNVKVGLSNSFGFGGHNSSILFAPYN
Protocol: The substrate specificities of the recombinant KASII and KASIV enzymes was investigated by incorporating radioactivity of [2-1^4C]-malonyl-ACP into the condensation products. The batch ([…]) contained 100 mM sodium phosphate, pH 7.6, 10 µM acyl-ACP with a specific chain length, 7.5 μM [2-^14C]-malonyl-ACP (0.74 MBq/mmol), 2 mM NADPH, 2 mM DTT, 0.6 Fkat of affinity-purified recombinant GST-β-ketoacyl-ACP-reductase fusion protein of C. lanceolata (Klein et al. (1992) Mol. Gen. Genet. 233:122-128) and 2 μg of the recombinant KASII/IV preparation. The β-hydroxyacyl-ACPs that were synthesized were precipitated, washed and dissolved as described by Winter et al. (1997) Biochem. J 321:313-318 and then separated by a 2.5 M urea-PAGE. After transfer to an Immobilon P membrane by electroblotting at 0.8 mA/cm for one hour, the reaction products were visualized by autoradiography after five-day exposure on an x-ray film (Hyperfilm MP, Amersham, Braunschweig, Germany).
In the assays, saturated acyl-ACP (C4 through C16) was added to the reaction mixture together with [2- ^4C]-malonyl-ACP and was incubated for ten minutes. Incorporation of the radioactivity from [2- ^4C]-malonyl-ACP into the O-ketoacyl-ACP product, which was reduced to β-hydroxyacyl-ACP for the analysis, was determined. […]

IC50 [2]: 20 µM
SMILES: C/C=C/C/C=C/CCC(=O)[C@H]1O[C@H]1C(N)=O [cerulenin, Cerulenin]
inactivation of enzymes of the KASI type by cerulenin [1]: completely inactivated
